Laboratory results: US5064637A, “Substituted sulfonamide derivatives which inhibit allergic reactions” (Board of Regents, The University of Texas System, priority 1989, dated 1991)

How the values were obtained:
[1] = system: IgG to SMX; assay: Example 3: inhibition studies, ELISA, serum preincubated overnight with inhibitor; assay type: binding, human; details: serum 1:40
Description: This study was conducted to confirm results on binding inhibition obtained in Example 2. Two positive serums (i.e., positive for IgG to SMX) were employed, including the positive serum used in Examples 1 and 2. PBS (phosphate buffered saline) and a normal serum were also tested in this study.
All serum used were at a 1:40 final dilution. Serum was diluted in PBS.
Several binding inhibitors at various dilutions were used. The particular inhibitors and the dilutions thereof examined appear in Table 8, along with their numerical designations.
Positive serum samples were first preincubated overnight with 50 microliter of the numerically designated inhibitors (10 mg/ml inhibitor solution - See Example I).
A standard ELISA assay was conducted using a 96 well microtiter plate as described for Example I. Row A, wells 3 and 4, received normal serum diluted 1:40 in PBS. Other wells received 10 microliter of positive serum A (Row A, well 5 through Row F, well 6) or positive serum B (Row F, well 7 through Row H, well 6) at a 1:40 dilution in PBS.
That percent binding inhibition obtained for each sample appears at Table 10.

[2] = system: IgG to SMX; assay: Example 1: inhibition of IgG binding, ELISA, serum preincubated overnight with inhibitor; design: species or system human; details: for Reduction in percent binding: 20 microliter of 10 mg/ml inhibitor to 180 microliter serum, overnight; for inhibition of IgG binding (in words): serum dilutions 1:40, 1:80, 1:160
Description: This experiment was performed to determine the amount of binding inhibition achieved with various inhibitory agents. […] The experiments were performed in 96-well microtiter plates having 8 rows
designated A-H, and 12 columns designated 1-12. Each well of the microtiter plate was given a designation in accordance with the above grid system. All samples were diluted in phosphate buffered saline (PBS) to the designated dilution factor. The serum dilution levels used in this study were 1:40, 1:80 and 1:160, v/v.
A sample of each serum dilution was preincubated overnight with a IgG binding inhibitor selected from Table 2. A 2o-lambda (mioroliter) volume from a lo mg/ml solution of the selected inhibitor was added to a 180 lambda volume of the particular serum sample.
One hundred milligrams (I00 mg) of each of the listed compounds was weighed out and added to a 10 ml volume of 100% PBS so as to achieve a final concentration of 10 mg/ml by weight of the inhibitor.
In accordance with the aforedescribed system, the wells at Row A, columns 1 and 2 of the microtiter plate, received 100 microliters of phosphate buffered saline as a blank. Row A, columns 3 and 4, received normal serum diluted 1:40 in PBS, and served as a negative control. Row A, columns 5 and 6 received -00 microliters of a positive serum (i.e., serum sample positive for IgG to SMX) diluted -:40. Row A, columns 7 and 8, received positive serum diluted at 1:80. Similarly, Row A, columns 9 and 10, received 100 microliters positive serum diluted at 1:160. […] The completed microtiter plate consisted of the following sample distribution (see Table 3).
The present invention was tested using a modified ELISA assay. The specific ELISA used employs the following reagents, standards and antibodies.

[3] = system: IgE to SM (N^4 -SMX determinants); details: cited from earlier work
[4] = system: Ig to SMX; assay: Hapten inhibition of Ig binding to SMX-HSA (RAST for IgE, ELISA for IgG, IgA, IgM); design: species or system human; details: free inhibitor, specificity check
Description: SMX-HSA was used in radioallergoasorbent test (RAST) assays for IgE and ELISA assays for IgG, IgA, and IgM.

[5] = system: IgG to SMX; assay: Example 2: hapten inhibition of IgG binding, ELISA, no preincubation; design: species or system human; details: final serum dilution 1:80
Description: The assay was set up using a 96 well microtiter plate. None of the serum samples were preincubated with inhibitor. Serum used was positive (+) for IgG to SMX, and was used at a final dilution of […] for all wells.
A variety of binding inhibitors were employed at varying concentrations.
A 50 microliter volume of each numerically designated inhibitor was added each well of the plate. A 50 microliter volume of serum (1:40 dilution) positive to IgG to SMX was then added to each well. The final dilution of serum in each was then 1:80.
The microtiter plate was then shaken slightly to mix the contents of each well and then the standard ELISA assay was performed. The plate was then allowed to incubate for 2 hours at room temperature. The plates were then washed and the OD readings taken for each well.
Percent inhibition was then calculated for each sample on the basis of decrease in OD.

## Cc1cc(NS(=O)(=O)c2ccc(N=Nc3cc(CC(N)C(=O)O)ccc3O)cc2)no1 (centres unmarked) [Inhibitor 3]
[1]; inhibitor 0.1 mg/ml (Table 8)
  % Reduction in OD: 32%
[2]; serum dilution 1:40
  Reduction in percent binding: 28%
[2]; serum dilution 1:80
  Reduction in percent binding: 50%
[2]; serum dilution 1:160
  Reduction in percent binding: 42%

## CC1(C)SC(C(NC(=O)Cc2ccccc2)C(=O)NCc2ccccc2)NC1C(=O)O (centres unmarked) [Inhibitor 28]
[1]; inhibitor 10 mg/ml (Table 8), serum A or B not stated
  % Reduction in OD: 0%

## Cc1cc(NS(=O)(=O)c2ccc(N)cc2)no1 [SMX, Sulfamethoxazole, reference compound]
[3]
  inhibition of IgE binding of one highly reactive serum (in words): significantly inhibited
[4]
  inhibition of antibody binding to SMX-HSA (in words): also inhibited binding, but were usually less efficient

## COC(=O)C(N)Cc1ccc(O)c(N=Nc2ccc(S(=O)(=O)Nc3cc(C)on3)cc2)c1 (centres unmarked) [SMX-Tyrosine Methyl ester]
[5]; inhibitor 10 mg/ml
  % Inhibition: 32%
[2]
  inhibition of IgG binding (in words): considerable inhibition at the 1:40 serum dilution only

## Cc1cc(NS(=O)(=O)c2ccc(N=Nc3cc(CC(N)C(=O)O)ccc3O)cc2)no1 (centres unmarked) [SMX-Tyrosine]
[5]; inhibitor 0.1 mg/ml
  % Inhibition: 51%
[5]; inhibitor 0.3 mg/ml
  % Inhibition: 54%
[5]; inhibitor 1 mg/ml
  % Inhibition: 57%
[5]; inhibitor 3 mg/ml
  % Inhibition: 70%
[5]; inhibitor 10 mg/ml
  % Inhibition: 59%
[2]
  inhibition of IgG binding (in words): significantly inhibit binding

## COc1cc(Cc2cnc(N)nc2N)cc(OC)c1OC [Trimethoprim]
[3]
  inhibition of IgE binding of one highly reactive serum (in words): not

## Cc1ccnc(NS(=O)(=O)c2ccc(N)cc2)n1 [sulfamerazine]
[3]
  inhibition of IgE binding of one highly reactive serum (in words): significantly inhibited

## Cc1nnc(NS(=O)(=O)c2ccc(N)cc2)s1 [sulfamethizole]
[3]
  inhibition of IgE binding of one highly reactive serum (in words): significantly inhibited

## Nc1ccc(S(=O)(=O)O)cc1 [sulfanilic acid]
[3]
  inhibition of IgE binding of one highly reactive serum (in words): not

## N^4 -sulfamethoxazoyl-L-histidine [SMX-Histidine]
[5]; inhibitor 10 mg/ml
  % Inhibition: 54%
[2]
  inhibition of IgG binding (in words): significant reduction in binding at the 1:80 and I:160 serum dilution, but none at the 1:40 dilution
[4]; listed as N^4 -sulfamethoxazoyl histidine
  inhibition of antibody binding to SMX-HSA (in words): among the most active
[4]; listed as SMX-HD
  inhibition of antibody binding to SMX-HSA (in words): inhibition of binding

## N^4 -sulfamethoxazoyl-poly-L-tyrosine [SMX-poly-L-tyrosine]
[5]; inhibitor 0.1 mg/ml
  % Inhibition: 0%
[5]; inhibitor 0.3 mg/ml
  % Inhibition: 2%
[5]; inhibitor 1 mg/ml
  % Inhibition: 24%
[5]; inhibitor 3 mg/ml
  % Inhibition: 46%
[5]; inhibitor 10 mg/ml
  % Inhibition: 50%
[2]
  inhibition of IgG binding (in words): significantly inhibit binding

## SMX-Imidazole
[5]; inhibitor 10 mg/ml
  % Inhibition: 61%

## SMX-Lysine
[5]; inhibitor 10 mg/ml
  % Inhibition: 51%

## SMX-Tryptophan
[5]; inhibitor 10 mg/ml
  % Inhibition: 52%

## Sulfamerazine-Histidine
[5]; inhibitor 10 mg/ml
  % Inhibition: 35%

## Sulfamethizole-histidine [Sulfamethazole-histidine]
[5]; inhibitor 10 mg/ml
  % Inhibition: 7%

## Sulfanilic-Histidine
[5]; inhibitor 10 mg/ml
  % Inhibition: 60%
